Patent publication US20160030364A1, “Therapeutic Compositions and Uses Thereof” (MANUKA HEALTH NEW ZEALAND LIMITED, priority 2013, published 2016)

Key:
Format in all cases: cell-based
[1] = test system: human colon cancer cell line (HCT-116); test: MTT anti-proliferative assay, HCT-116 (Examples 3-12)
Method: (§1) 5-phenylpenta-2,4-dienoic acid was assessed for its ability to modulate the viability and proliferation of human colorectal adenocarcinoma cells (DLD-1); human colon cancer cell line (HCT-116); human gastric carcinoma cell line (NCI-N87); and human oesophageal squamous cell carcinoma cell line (KYSE-30) as assessed by the MTT assay. The positive control, 5-fluorouracil (5-FU) was included at three concentrations; in addition to an unsupplemented cell control as a negative control in the study. The 5-phenylpenta-2,4-dienoic acid was a genuine standard with chemical structure confirmed by NMR and MS.
(§2) The four human gastrointestinal carcinoma cell lines were revived from cryostorage and cultured in the presence of the test and reference samples. An MTT assay was then performed on the cultures to determine the effect of the samples on the cell viability and proliferation.
(§3) The test sample 5-phenylpenta-2,4-dienoic acid, and all other test samples in Examples 4-12 (except tectochrysln) were Initially dissolved in pure ethanol to a concentration of around 13.35 mg/ml. Tectochrysin was initially dissolved in triethylene glycol mono-methyl ether to the same concentration. Working solutions were then prepared from the stock solutions by dilution to 15% ethanol/Hanks Balanced Salt Solution (ETOH)/HBSS to a concentration of 2 mg/mL solids. In the assay the final concentration of the samples was 200 μg/ml with a final EtOH concentration of 1.5%. Final concentrations of test compounds and propolis prepared as above are as noted in Example 3.
(§4) • 1. Human colorectal adenocarcinoma cells (ATCC CCI-221, DLD-1)(ATCC, Bethesda, Md., USA) • 2. Human gastric carcinoma cells (ATCC CRL-5822, NCI-N87)(ATCC, Bethesda, Md., USA) • 3. Human oesophageal squamous cell carcinoma (ECACC, KYSE-30)(Sigma Aldrich, Auckland, NZ) • 4. Human colon carcinoma cells (ECACC HCT-116)(Sigma Aldrich, Auckland, NZ) • 5. Penicillin-streptomycin solution: 10000 units/ml penicillin, 10 mg/ml streptomycin in 0.9% NaCl (Sigma Cat #P-0781). Stored at −20° C. • 6. For DLD-1 cells: DMEM culture medium (Invitrogen Cat #12100-046). Stored at 4° C. • 7. For NCI-N87 cells: RPMI-1640 medium modified to contain 2 mM L-glutamine, 10 mM HEPES, 1 mM sodium pyruvate, 4500 mg/L glucose, and 1500 mg/L sodium bicarbonate (Sigma R6504). Stored at 4° C. • 8. For KYSE-410 cells: RPMI-1640 medium modified to contain 2 mM L-glutamine (Sigma R6504). Stored at 4° C. • 9. For HCT-116 cells: McCoy's 5A medium modified to contain 2 mM L-glutamine (Sigma M48792). Stored at 4° C. • 10. Trypsin-EDTA solution: 0.25% Trypsin/EDTA, Invitrogen Cat#15400054 (×10 in stock). • 11. Phosphate buffered saline (PBS) (Prepared by TBL). • 12. Hanks Balanced Salt Solution (HBSS). (GIBCO Cat No. 14185-052). Stored at 4° C. • 13. Foetal Bovine Serum (GIBCO Cat #10091-148). Stored at −20° C. • 14. MTT Reagent: 100 mg/vial, (SIGMA Cat. No. M-2128) dissolved in PBS at 10 mg/ml and stored at −20° C. 5 mg/ml MTT solution will be prepared in PBS and stored at 4° C. as working solution. • 15. MTT lysis buffer: 10% sodium dodecyl sulphate (SDS)/45% Dimethyl Formamide (20 g SDS will be dissolved in 100 ml of double-distilled water (DDW), and 90 ml of Dimethyl Formamide will be added to the SDS solution). The pH will be adjusted to 4.7 by glacial acetic acid, and DDW added up to a final volume of 200 ml. • 16. 5-Fluorouracil (5-FU), (Sigma Cat. No. F-6627). Three working solutions will be prepared at 19.5 μg/ml. 6.5 μg/ml and 1.95 μg/ml dissolved in 15% Ethanol/HBSS. Final concentrations will be 1.95 μg/ml (15 μM), 0.65 μg/ml (5 μM) and 0.195 μg/ml (1.5 μM).
(§5) The medium for the propagation of the each of the cells lines is given above. Each medium was prepared following the ATCC/ECACC instructions and supplemented with penicillin-streptomycin solution (10 ml per litre). FBS (at 10%) was added just before use.
• 1. […]

[2] = test system: human gastric carcinoma cell line (NCI-N87); test: MTT anti-proliferative assay, NCI-N87 (Examples 3-12); settings: for % stim. / Mean OD (570 nm) / inhibition at 200 µg/mL / % inhibition: 200 μg/ml; for % stim. / Mean OD (570 nm) / % inhibition: 48 hours
Method: as §1, §2, §3, §4, §5
• 1. […]

[3] = test system: human oesophageal squamous cell carcinoma cell line (KYSE-30); test: MTT anti-proliferative assay, KYSE-30 (Examples 3-13)
Method: as §1, §2, §3, §4, §5
• 1. […]

[4] = test system: human oesophageal squamous cell carcinoma cell line (KYSE-30); test: as above; remark: listed apart in the source
[5] = Homo sapiens, HCT-116, 48 h, 200 μg/ml
[6] = Examples 3-12, 200 μg/ml, 48 hours
[7] = Homo sapiens, KYSE-30, 48 h, Examples 3-12, 200 μg/ml, 48 hours

Row | Compound | % stim. ([1]; 200 μg/ml, 48 hours) [%] | Mean OD (570 nm) ([1]; 200 μg/ml, 48 hours) | inhibition at 200 µg/mL [1, 5] [%] | % stim. [2] [%] | Mean OD (570 nm) [2] | inhibition at 200 µg/mL ([2]; Homo sapiens, NCI-N87, 48 h) [%] | % stim. [3, 6] [%] | Mean OD (570 nm) [3, 6] | inhibition at 200 µg/mL [3, 7] [%] | % inhibition [2] [%] | other results
1 | O=C1C[C@@H](c2ccccc2)Oc2cc(O)cc(O)c21 [Pinocembrin, reference compound] | 0 | 0.0045 | 99.1 | 0 | 0.1214 | 72.5 | 0 | 0.0225 | 96.3 |  | % inhibition ([4]; Example 13, 100 μg/ml): 50.26%; Mean OD (570 nm) ([4]; Example 13, 100 μg/ml): 0.1668; inhibition at 100 µg/mL ([4]; Homo sapiens, KYSE-30, Example 13, 100 μg/ml): 50.3%
2 | O=c1[nH]cc(F)c(=O)[nH]1 [Sample 5-FU, 5-fluorouracil, reference compound] |  |  |  |  |  |  |  |  |  |  | inhibition at 0.195 µg/mL ([1]; Homo sapiens, HCT-116, 48 h, 0.195 μg/ml): 33.9%; inhibition at 0.65 µg/mL ([1]; Homo sapiens, HCT-116, 48 h, 0.65 μg/ml): 54%; inhibition at 1.95 µg/mL ([1]; Homo sapiens, HCT-116, 48 h, 1.95 μg/ml): 57.3%; inhibition at 0.195 µg/mL ([2]; Homo sapiens, NCI-N87, 48 h, 0.195 μg/ml): 7.52%; inhibition at 0.65 µg/mL ([2]; Homo sapiens, NCI-N87, 48 h, 0.65 μg/ml): 17.2%; inhibition at 1.95 µg/mL ([2]; Homo sapiens, NCI-N87, 48 h, 1.95 μg/ml): 16.2%; inhibition at 0.195 µg/mL ([3]; Homo sapiens, KYSE-30, 48 h, Examples 3-12, 0.195 μg/ml, 48 hours): 23.8%; inhibition at 0.195 µg/mL ([3]; Homo sapiens, KYSE-30, Example 13, 0.195 μg/ml): 3.41%; inhibition at 0.65 µg/mL ([3]; Homo sapiens, KYSE-30, Example 13, 0.65 μg/ml): 16.6%; inhibition at 1.95 µg/mL ([3]; Homo sapiens, KYSE-30, Example 13, 1.95 μg/ml): 31.5%; inhibition at 0.65 µg/mL ([4]; Homo sapiens, KYSE-30, 48 h, Examples 3-12, 0.65 μg/ml, 48 hours): 39.4%; inhibition at 1.95 µg/mL ([4]; Homo sapiens, KYSE-30, 48 h, Examples 3-12, 1.95 μg/ml, 48 hours): 47.5%
3 | COc1cc(O)c2c(=O)cc(-c3ccccc3)oc2c1 [Tectochrysin, tectochrysin] |  |  |  |  |  |  |  |  |  | 54.0 | % inhibition ([1]; 200 μg/ml, 48 hours): 90.1%; % inhibition [3, 6]: 87.6%
4 | O=C(O)/C=C/c1ccc(O)cc1 [p-coumaric acid, para-coumaric acid, reference compound] | 2.6 | 0.5216 | 0 | 0 | 0.3652 | 17.3 | 0 | 0.3243 | 46.1 | 17.31 | 
